Source: patent US20110289632A1, “METHYLKETONE SYNTHASE, PRODUCTION OF METHYLKETONES IN PLANTS AND BACTERIA” (The Regents of the University of Michigan, priority 2009, published 2011)

How the values were obtained:
3-ketomyristoyl-ACP = assay: In vitro thioesterase activity assay; assay type: biochemical; details: 2.5 μg protein, 30 min at 23° C., then acid and heat
Experimental: To examine the potential thioesterase activity of ShMKS1 and ShMKS2 in vitro, we added 2.5 μg of each protein to a 500 μL solution of freshly prepared 3-ketomyristoyl-ACP. This protein-linked substrate was prepared using a sequential in vitro enzymatic system involving the addition of multiple starting materials and enzymes and the reaction allowed to proceed for 5 hr (see Examples, Materials, and Methods). Due to the highly unstable nature of 3-ketomyristoyl-ACP, this compound was not further purified but instead the solution in which it was synthesized was used as the “substrate solution” for qualitative in vitro thioesterase activity assays.
Aliquots of this substrate solution were incubated with buffer, ShMKS1, ShMKS2, or both ShMKS1 and ShMKS2 for 30 min at 23° C. […]
3-Ketomyristoyl-ACP was synthesized in a 500 μL reaction volume containing 1,3-bis(tris(hydroxymethyl)methylamino) propane (20 mM, pH 7.0), malonyl-CoA (0.2 mM), lauroyl-CoA (0.2 mM), ShACP (0.1 mM), EcFabD (10 μg) and MtFabH (10 μg). […] Hexane extracts were analyzed by GC-MS as described above. The values for heat-treated samples shown in FIG. 20 were corrected for loss of methylketones during the heating step, as determined by comparisons with standards.

E. coli BL21 cells = assay: Headspace SPME GC-MS of E. coli cultures expressing ShMKS2 or SlMKS2; assay type: cell-based, Escherichia coli; details: IPTG induction, overnight growth
Experimental: To investigate the biochemical activity of MKS2, the full ORFs of the wild-species allele (ShMKS2) and the cultivated allele (SlMKS2) were amplified and ligated into an E. coli expression vector (see Examples, Materials and Methods). These vectors were introduced into E. coli BL21cells and ShMKS2 or SlMKS2 expression was induced by the addition of IPTG (see Examples, Materials and Methods). After induction and overnight growth, the culture was analyzed by solid-phase microextraction (SPME) of its headspace followed by gas chromatography-mass spectrometry (GC-MS; see Examples, Materials and Methods). The major compound in the headspace of the E. coli cells expressing ShMKS2 was identified as 2TD (FIG. 8A). Lower amounts of 2UD and 2-pentadecanone were also detected, as well as the reduced alcohol forms of 2UD and 2TD (i.e., 2-undecanol and 2-tridecanol). […] The headspace also contained 2-nonanol and 2-undecanol (FIG. 8B). However, the major headspace compound produced by SlMKS2-expressing cells eluted slightly later than 2TD (peak labeled “1” in FIG. 8B, and also present at lower levels in the chromatograph in FIG. 8A).
The sequence of these cDNAs was verified and transferred into the E. coli expression vector pHis9GW following Auldridge et al. (submitted). The pHis9GW vectors carrying ShMKS2 or SlMKS2 were mobilized into E. coli […] cells, and gene expression was induced by the addition of 2 mM IPTG after the culture OD595 value had reached 0.6-0.7. After IPTG addition, ShMKS2- and SlMKS2-expressing bacterial cells were grown at 30° C. or 18° C. overnight.
After induction with IPTG and growth overnight, 1 mL of culture was placed in a glass vial at 42° C. The vial was capped with a screw cap in which a small hole had been bored. The needle of a SPME device was inserted into the vial through the hole in the cap and the fiber extended for 30 min. for volatile collection, after which the fiber was withdrawn and then injected into the GC. […]

E. coli cells = assay: GC-MS of methylketones in spent media of E. coli cells expressing ShMKS1, ShMKS2 or ShMKS2 (D79A); assay type: cell-based, Escherichia coli
Experimental: To test if expression of either ShMKS1 or ShMKS2 (without its transit peptide) in E. coli results in the formation of 3-ketoacids, we collected spent media of bacterial cells expressing each of them (by centrifuging out the cells at the end of the incubation period), heated the spent media at 75° C. for 30 min in the presence of 1 M sulfuric acid, extracted with hexane, then injected the hexane fraction in a GC-MS. […] On the other hand, the spent medium of E. coli cells expressing ShMKS2 contained 5.6±0.32 μg/μL of total methylketones, and the amount of methylketones increased […], to 40.7±2.1 μg/μL, after the spent medium was treated with acid and heat (FIG. 17).
The coding regions of ShMKS1 and ShMKS2 (minus the transit peptide-encoding region) were each amplified by PCR and inserted into the E. coli expression vector pEXP-TOPO-CT (Invitrogen). The expression vectors were introduced into E. coli BL21 Star (DE3) cells, and gene expression was induced by the addition of 0.5 mM IPTG after the culture optical density at 600 nm had reached 0.65. After induction with IPTG and growth at 18° C. overnight, the cells expressing ShMKS1 or ShMKS2 were centrifuged at 5000 rpm for 15 minutes, and 1-mL aliquots of the spent medium were placed in individual vials for further analysis.
Aliquots (1 mL) of the spent medium of E. coli expressing ShMKS2, obtained by centrifuging the culture solution after the incubation time at 5,000 rpm for 15 min and collecting the solution without the cells, were treated in the following ways: 1. Incubated with 40 μl (3 μg) of purified MKS1 in phosphate buffer (12.5 mM NaH2PO4, 125 mM NaCl, 2 mM DTT, pH 6.8) for 2 hrs at 30° C. 3. Incubated at 75° C. for 30 min followed by 30 min at 30° C. 4. Incubated with 1 mL of 2M H2SO4 at 75° C. for 30 min followed by 30 min at 30° C. After the various treatments, 1 mL of hexane containing 5 ng/μL linalool as an internal standard was added and the resulting mixture was vortexed and centrifuged at 5000 rpm for 10 min. Two μL of the resulting extract were injected into the GC-MS for determination of methylketones. GC-MS and product analysis were performed as described by Ben-Israel et al, (2009) Multiple biochemical and morphological factors underlie the production of methylketones in tomato trichomes, Plant Physiology 151: 1952-1964.

[1] = In vitro decarboxylase activity assay; assay type: biochemical; details: substrate 3-ketomyristic acid
Experimental: To examine the possible decarboxylase activity of ShMKS1 as well as ShMKS2 in vitro, we tested homogenous recombinant ShMKS1 and partially purified recombinant ShMKS2 proteins (without their transit peptides) for their ability to convert 3-ketomyristic acid into its 2-tridecanone decarboxylated product. […] In steady-state kinetic assays, ShMKS1 was determined to have a KM of 18.4±5.6 μM for 3-ketomyristic acid, with an apparent kcat of 227.9±24.1 min^−1.
A typical decarboxylase assay consisted of a 500 μL reaction solution containing ShMKS1 or ShMKS2 (2.5 μg), 3-ketomyristic acid (0.1 mM), and 1,3-bis(tris(hydroxymethyl)methylamino) propane—Na^+ (20 mM, pH 7.0). For measuring kinetic parameters, substrate concentrations ranged from 5 μM to 75 μM. Assays were performed at 23° C. for 10 min after addition of protein. […] Reaction products (5 μL) were analyzed by a modified procedure, as described in O'Maille et al (2004) A single-vial analytical and quantitative gas chromatography-mass spectrometry assay for terpene synthases. […] Product quantification was performed using total ion monitoring (TIM) mode where all ions in the mass spectrum contribute to the measured response. […] 2-Tridecanone was quantified by integration of peak areas using Enhanced Chemstation (version B.01.00, Agilent Technologies). […]

[2] = combined heat and acid treatment
[3] = heated at 75° C. for 30 min, no sulfuric acid

Substance: ShMKS2: methylketone synthase 2 from Solanum habrochaites glabratum (SEQ ID NO: 4 / 25); thioesterase hydrolyzing 3-ketoacyl-ACPs
- amount of 2-tridecanone formed vs buffer-incubated substrate solution treated with acid and heat (3-ketomyristoyl-ACP): approximately 3 fold
- major compound in the headspace of E. coli cells expressing the enzyme (E. coli BL21 cells): 2TD
- increase of amount of methylketones after acid and heat treatment (E. coli cells; acid and heat treated vs untreated spent medium): 8 fold
- total methylketones in spent medium (E. coli cells; after spent medium was treated with acid and heat (1 M sulfuric acid, 75° C., 30 min)): 40.7 ± 2.1 µg/µL
- 2-nonanone in spent medium (E. coli cells; [2]): 0.95 ± 0.04 µg/µL
- 2-nonanone, fold over non-treated control (E. coli cells; [2]): 19.1 fold
- 2-pentadecenone in spent medium (E. coli cells; [2]): 5.69 ± 0.21 µg/µL
- 2-pentadecenone, fold over non-treated control (E. coli cells; [2]): 4.4 fold
- 2-tridecanone in spent medium (E. coli cells; [2]): 11.99 ± 0.51 µg/µL
- 2-tridecanone, fold over non-treated control (E. coli cells; [2]): 4.6 fold
- 2-tridecenone in spent medium (E. coli cells; [2]): 13.04 ± 0.63 µg/µL
- 2-tridecenone, fold over non-treated control (E. coli cells; [2]): 11.8 fold
- 2-undecanone in spent medium (E. coli cells; [2]): 9.33 ± 0.61 µg/µL
- 2-undecanone, fold over non-treated control (E. coli cells; [2]): 18.3 fold
- 2-nonanone, fold over non-treated control (E. coli cells; heat only): 11.9 fold
- 2-pentadecenone, fold over non-treated control (E. coli cells; heat only): 3.0 fold
- 2-tridecanone, fold over non-treated control (E. coli cells; heat only): 3.7 fold
- 2-tridecenone, fold over non-treated control (E. coli cells; heat only): 9 fold
- 2-undecanone, fold over non-treated control (E. coli cells; heat only): 12.2 fold
- 2-nonanone in spent medium (E. coli cells; [3]): 0.60 ± 0.05 µg/µL
- 2-pentadecenone in spent medium (E. coli cells; [3]): 3.94 ± 0.54 µg/µL
- 2-tridecanone in spent medium (E. coli cells; [3]): 9.61 ± 0.27 µg/µL
- 2-tridecenone in spent medium (E. coli cells; [3]): 9.94 ± 0.83 µg/µL
- 2-undecanone in spent medium (E. coli cells; [3]): 6.22 ± 0.34 µg/µL
- 2-nonanone in spent medium (E. coli cells; untreated spent medium): 0.05 µg/µL
- 2-pentadecenone in spent medium (E. coli cells; untreated spent medium): 1.3 µg/µL
- 2-tridecanone in spent medium (E. coli cells; untreated spent medium): 2.6 µg/µL
- 2-tridecenone in spent medium (E. coli cells; untreated spent medium): 1.1 µg/µL
- 2-undecanone in spent medium (E. coli cells; untreated spent medium): 0.51 µg/µL
- total methylketones in spent medium (E. coli cells; untreated spent medium): 5.6 ± 0.32 µg/µL
- decarboxylase activity [1]: no decarboxylase activity

Substance: SlMKS2: methylketone synthase 2, cultivated tomato S. lycopersicum allele (SEQ ID NO: 3)
- major compound in the headspace of E. coli cells expressing the enzyme (E. coli BL21 cells): 2-tridecenone
- two main MK in the headspace (E. coli BL21 cells): 2UD as well as 2-nonanone
